GI50 and TGI data for 8 compounds are collected here from PubChem BioAssay (NCI).

Test systems include HCC-2998 colon; T-47D breast; RPMI-8226 leukemia; HT29 colon; OVCAR-4 ovarian; 786-0 renal; SNB-19 CNS; MOLT-4 leukemia; CAKI-1 renal; MDA-MB-231 breast.
Holding throughout (assay): DTP human tumour cell line panel, 48 h

The structures appear in SMILES notation.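 Test compounds were applied to cells in 96-well plates for 48 hours at 5 doses. GI50: concentration for 50% inhibition of growth. The concentration for full growth arrest is given as TGI.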 Bounds are passed on as bounds.

Regarding `Nc1c(C(=O)N/N=C/c2ccc(-c3cc(Cl)c(Cl)cc3Cl)o2)cnn1-c1ccnc2c(C(F)(F)F)cccc12`, the GI50 is 3.64 µM with HCC-2998 colon; 2.93 µM in the experiment on T-47D breast; 3.25 µM in the experiment with RPMI-8226 leukemia; 2.73 µM with HT29 colon; 2.6 µM in the experiment on OVCAR-4 ovarian; 3.96 µM in the experiment with 786-0 renal. Further, the GI50 was 4.17 µM in the experiment on SNB-19 CNS, 2.91 µM with MOLT-4 leukemia, 4.21 µM in the experiment on CAKI-1 renal and 3.83 µM in the experiment with MDA-MB-231 breast. For the same compound, the TGI with HCC-2998 colon was > 100 µM; in the experiment on T-47D breast, > 100 µM; in the experiment with RPMI-8226 leukemia it was > 100 µM; in the experiment with HT29 colon, 28 µM; in the experiment with OVCAR-4 ovarian, 9.4 µM; in the experiment with 786-0 renal, > 100 µM. Moreover, the TGI with SNB-19 CNS was > 100 µM; in the experiment with MOLT-4 leukemia, > 100 µM; in the experiment with CAKI-1 renal it was > 100 µM; in the experiment with MDA-MB-231 breast it was 22 µM.
Regarding `FC(F)(F)c1cccc2c(SCCc3n[nH]c(=S)o3)ccnc12`, the GI50 is 37.9 µM in the experiment on HCC-2998 colon; 29.3 µM in the experiment on T-47D breast; 30.3 µM in the experiment with RPMI-8226 leukemia; 64.2 µM with HT29 colon; 32.5 µM in the experiment with OVCAR-4 ovarian; > 100 µM in the experiment with 786-0 renal. In addition, the GI50 in the experiment with SNB-19 CNS is 54.2 µM; in the experiment with MOLT-4 leukemia, 31.2 µM; in the experiment with CAKI-1 renal, 45.1 µM; with MDA-MB-231 breast it was 43.1 µM. The concentration for total growth inhibition (TGI) in the experiment with HCC-2998 colon was > 100 µM; in the experiment on T-47D breast, 93.3 µM; in the experiment on RPMI-8226 leukemia it was > 100 µM; in the experiment with HT29 colon, > 100 µM; with OVCAR-4 ovarian it was > 100 µM; in the experiment with 786-0 renal, > 100 µM. Also, the TGI with SNB-19 CNS, in the experiment with MOLT-4 leukemia, with CAKI-1 renal and in the experiment with MDA-MB-231 breast was > 100 µM throughout.
Regarding `O=C(N/N=C/c1ccc(Cl)cc1Cl)c1ccc2nc(-c3ccc(Cl)cc3)[nH]c2c1`, the GI50 with HCC-2998 colon is 1.82 µM; in the experiment with T-47D breast, 1.79 µM; in the experiment with RPMI-8226 leukemia, 1.16 µM; in the experiment on HT29 colon, 1.97 µM; in the experiment on OVCAR-4 ovarian, 1.74 µM; with 786-0 renal it was 1.79 µM. Besides, the GI50 is 2.34 µM in the experiment with SNB-19 CNS, 1.55 µM in the experiment on MOLT-4 leukemia, 1.7 µM in the experiment with CAKI-1 renal and 1.85 µM in the experiment on MDA-MB-231 breast. The TGI in the experiment with HCC-2998 colon is 3.44 µM; in the experiment on T-47D breast it was 3.83 µM; in the experiment on RPMI-8226 leukemia it was 3.51 µM; in the experiment with HT29 colon, 5.47 µM; in the experiment on OVCAR-4 ovarian, 3.29 µM; with 786-0 renal, 3.48 µM. Further, the concentration for total growth inhibition (TGI) with SNB-19 CNS is 5.06 µM; in the experiment with MOLT-4 leukemia, 4.81 µM; in the experiment on CAKI-1 renal, 3.29 µM; in the experiment on MDA-MB-231 breast, 3.77 µM.
Turning to `CNC1=C(C(=O)OC)SC(c2ccccc2)(c2ccccc2)SC1`, the GI50 was 13.1 µM in the experiment with HCC-2998 colon; 34.6 µM in the experiment with T-47D breast; 8.83 µM with RPMI-8226 leukemia; 20.9 µM in the experiment with HT29 colon; 8.58 µM with OVCAR-4 ovarian; 31.9 µM in the experiment on 786-0 renal. Moreover, the GI50 was 52.8 µM with SNB-19 CNS, 7.56 µM in the experiment with MOLT-4 leukemia, 44.1 µM with CAKI-1 renal and 45.8 µM in the experiment with MDA-MB-231 breast. The TGI in the experiment with HCC-2998 colon is > 100 µM; in the experiment with T-47D breast, > 100 µM; in the experiment with RPMI-8226 leukemia, 39.7 µM; in the experiment with HT29 colon it was > 100 µM; in the experiment with OVCAR-4 ovarian, 82.6 µM; in the experiment with 786-0 renal it was > 100 µM. For the same compound, the TGI in the experiment on SNB-19 CNS, with MOLT-4 leukemia, with CAKI-1 renal and in the experiment on MDA-MB-231 breast was > 100 µM in each case.
On to `COc1cccc(N=N/C(=N\NC(=O)c2cc(Br)ccc2O)c2ccc(N(CCC#N)CCC#N)cc2OC)c1`, for which the GI50 in the experiment on HCC-2998 colon was 21.3 µg/mL; in the experiment with T-47D breast, 64 µg/mL; in the experiment on RPMI-8226 leukemia, 41.4 µg/mL; in the experiment with HT29 colon, 30 µg/mL; in the experiment on OVCAR-4 ovarian it was 17.5 µg/mL; in the experiment on 786-0 renal, 79.2 µg/mL. The GI50 was 68.9 µg/mL in the experiment with SNB-19 CNS, 54.7 µg/mL with MOLT-4 leukemia, 88.6 µg/mL in the experiment on CAKI-1 renal and 71.9 µg/mL in the experiment with MDA-MB-231 breast. For the same compound, the TGI was 73.2 µg/mL in the experiment with HCC-2998 colon; > 150 µg/mL in the experiment with T-47D breast; > 150 µg/mL in the experiment on RPMI-8226 leukemia; > 150 µg/mL with HT29 colon; 60.9 µg/mL with OVCAR-4 ovarian; > 150 µg/mL with 786-0 renal. In addition, the total growth inhibition concentration (TGI) in the experiment on SNB-19 CNS, in the experiment with MOLT-4 leukemia, with CAKI-1 renal and in the experiment on MDA-MB-231 breast was > 150 µg/mL throughout.
Turning to `Nc1cc(S(N)(=O)=O)ccc1SSc1ccc(S(N)(=O)=O)cc1N`, the total growth inhibition concentration (TGI) in the experiment with HCC-2998 colon, in the experiment on T-47D breast, in the experiment on RPMI-8226 leukemia, in the experiment with HT29 colon, with OVCAR-4 ovarian and in the experiment on 786-0 renal was > 100 µM each time. Also, the concentration for total growth inhibition (TGI) in the experiment on SNB-19 CNS, with MOLT-4 leukemia, with CAKI-1 renal and in the experiment on MDA-MB-231 breast was > 100 µM each time.
With `Cc1cc(C)c(S(=O)(=O)N(CCc2cccc(Br)c2)Cc2ccc(-c3cccc(S(C)(=O)=O)c3)cc2)c(C)c1`, the GI50 in the experiment on HCC-2998 colon, in the experiment on T-47D breast, in the experiment on RPMI-8226 leukemia, in the experiment with HT29 colon, in the experiment with OVCAR-4 ovarian and in the experiment with 786-0 renal was > 100 µM in each case. The GI50 in the experiment on SNB-19 CNS, in the experiment with MOLT-4 leukemia, in the experiment on CAKI-1 renal and in the experiment with MDA-MB-231 breast was > 100 µM throughout. In addition, the concentration for total growth inhibition (TGI) in the experiment on HCC-2998 colon, with T-47D breast, with RPMI-8226 leukemia, in the experiment with HT29 colon, in the experiment with OVCAR-4 ovarian and with 786-0 renal was > 100 µM throughout. For the same compound, the concentration for total growth inhibition (TGI) in the experiment on SNB-19 CNS, with MOLT-4 leukemia, in the experiment on CAKI-1 renal and with MDA-MB-231 breast was > 100 µM in each case.
Regarding `CCC1(NC(=O)c2cc(F)c(F)c(F)c2F)C(=O)NC(=O)N(C(C)C)C1=O` (stereo not given), the GI50 was 1.94 µM with HCC-2998 colon; > 100 µM in the experiment with T-47D breast; > 100 µM with RPMI-8226 leukemia; 22.6 µM in the experiment with HT29 colon; > 100 µM in the experiment with OVCAR-4 ovarian; > 100 µM in the experiment with 786-0 renal. For the same compound, the GI50 with SNB-19 CNS was 19.6 µM; with MOLT-4 leukemia, 22.6 µM; in the experiment with CAKI-1 renal it was 29.8 µM; in the experiment on MDA-MB-231 breast, 19.3 µM. In addition, the total growth inhibition concentration (TGI) in the experiment with HCC-2998 colon was 3.97 µM; in the experiment on T-47D breast, > 100 µM; in the experiment with RPMI-8226 leukemia it was > 100 µM; in the experiment on HT29 colon, > 100 µM; with OVCAR-4 ovarian, > 100 µM; in the experiment with 786-0 renal it was > 100 µM. Besides, the TGI with SNB-19 CNS is 42.2 µM; with MOLT-4 leukemia, 78.8 µM; with CAKI-1 renal, > 100 µM; with MDA-MB-231 breast, 48.7 µM.

One may read the GI50 as the concentration that inhibits growth by half. As a reminder, the TGI is the concentration giving total growth inhibition. The low end stands for more potent growth arrest, the high end for less potent growth arrest.
